According to PubChem BioAssay AID743317 (Broad Institute, 2014):
Inconclusive results are not listed. Calls of active or inactive are those of the source.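 Rule for the calls: active = fitted curve reaches 40% activation at or below the top valid dose, and every replicate test is called active; inconclusive = replicate tests disagree, some active and some inactive; inactive = all replicate tests inactive, including activity in the wrong direction.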

Molecular target: Endoplasmic reticulum aminopeptidase 1 (Homo sapiens) (UniProt Q9NZ08)
Sequence (Q9NZ08 whole entry, looked up): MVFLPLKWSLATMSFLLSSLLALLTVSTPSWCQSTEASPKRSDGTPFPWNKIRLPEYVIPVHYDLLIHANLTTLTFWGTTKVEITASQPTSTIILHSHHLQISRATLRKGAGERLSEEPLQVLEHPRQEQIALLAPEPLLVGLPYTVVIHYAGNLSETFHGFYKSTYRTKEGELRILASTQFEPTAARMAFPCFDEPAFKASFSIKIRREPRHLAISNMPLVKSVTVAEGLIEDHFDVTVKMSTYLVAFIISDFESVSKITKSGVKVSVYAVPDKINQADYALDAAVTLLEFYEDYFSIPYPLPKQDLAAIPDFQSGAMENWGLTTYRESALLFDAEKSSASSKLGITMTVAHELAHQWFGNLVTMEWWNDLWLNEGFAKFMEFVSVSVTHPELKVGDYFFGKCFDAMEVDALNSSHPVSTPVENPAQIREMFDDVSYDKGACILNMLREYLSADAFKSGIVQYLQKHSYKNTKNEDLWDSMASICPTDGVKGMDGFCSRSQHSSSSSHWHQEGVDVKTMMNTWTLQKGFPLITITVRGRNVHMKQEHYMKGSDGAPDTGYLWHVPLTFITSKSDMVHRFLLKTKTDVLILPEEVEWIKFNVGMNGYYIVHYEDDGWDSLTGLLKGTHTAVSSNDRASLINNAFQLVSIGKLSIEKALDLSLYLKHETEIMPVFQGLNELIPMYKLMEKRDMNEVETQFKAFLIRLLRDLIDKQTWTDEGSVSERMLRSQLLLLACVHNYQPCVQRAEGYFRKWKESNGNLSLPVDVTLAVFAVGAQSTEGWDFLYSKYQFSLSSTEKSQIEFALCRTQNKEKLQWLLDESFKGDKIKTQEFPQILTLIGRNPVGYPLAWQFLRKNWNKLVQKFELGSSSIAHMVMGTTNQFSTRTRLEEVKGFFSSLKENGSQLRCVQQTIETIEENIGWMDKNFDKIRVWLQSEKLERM
Assay: ERAP1 aminopeptidase activity change, dose response, biochemical, fluorescence, cherry-pick (AID 743317)
Conditions: ERAP1 enzyme, Leu-AMC fluorescence, 60 min

SMILES | activity increase (activation) (at 11 µM (top of the series)) | AC40 [µM] | also measured
CC1CCCC(C)N1CCCNC(=O)c1cc2c(s1)-c1ccccc1OC2 (stereo not given) | -45.6% (inactive) |  | 
Cc1ccc(S(=O)(=O)Nc2ccc3c(c2)C(=O)N([C@@H](C)CO)C[C@H](C)[C@H](CN(C)C)OCCCC[C@@H](C)O3)cc1 |  | 0.48 | 
C[C@@H]1CCCCO[C@@H](CN(C)Cc2ccccc2)[C@H](C)CN([C@H](C)CO)C(=O)c2cc(NS(=O)(=O)c3cccs3)ccc2O1 |  | 0.528 | 
C[C@@H]1CCCCO[C@@H](CN(C)C)[C@H](C)CN([C@@H](C)CO)C(=O)c2cc(NC(=O)Nc3ccc(C(F)(F)F)cc3)ccc2O1 |  | 0.516 | 
COc1ccc(NC(=O)Nc2ccc3c(c2)C(=O)N([C@@H](C)CO)C[C@@H](C)[C@H](CN(C)Cc2ccc(C(=O)O)cc2)OCCCC[C@H](C)O3)cc1 |  | 3.74 | 
CC(C)[C@@H](C(=O)N[C@@H](CCc1ccc(O)cc1)C(=O)O)N(C)C(=O)[C@H](CO)NC(=O)[C@@H](O)[C@H](N)CCCCCCCCl | -103% (inactive) |  | 
COc1ccc(CN(C)C[C@@H]2OCCCC[C@@H](C)Oc3ccc(NS(=O)(=O)c4c(C)noc4C)cc3C(=O)N([C@@H](C)CO)C[C@@H]2C)cc1 |  | 1.88 | 
COc1ccc(S(=O)(=O)Nc2ccc3c(c2)C(=O)N([C@@H](C)CO)C[C@H](C)[C@H](CN(C)C)OCCCC[C@@H](C)O3)cc1 |  | 0.419 | 
CN1CCCC1CCNc1ccc2c(=O)c3ccccc3oc2c1 (stereo not given) | -115% (inactive) |  | 
C/C(=N\NC(=O)CC#N)c1cc2ccc(O)cc2oc1=O | -67.1% (inactive) |  | 
COc1ccc(NC(=O)Nc2cccc3c2O[C@H](CN(C)Cc2ccc(C(=O)O)cc2)[C@H](C)CN([C@H](C)CO)C3=O)cc1 |  | 5.25 | 
C[C@H](CO)N1C[C@H](C)[C@@H](CN(C)CC2CC2)Oc2c(NC(=O)Nc3ccc(C(F)(F)F)cc3)cccc2C1=O |  | 0.757 | 
COCCCn1c(C(=O)N2CCOCC2)cc2c(=O)n3ccccc3nc21 | -46.9% (inactive) |  | 
CCN(CCCl)c1cc(CN(C)C)cc(NC(=O)c2ccc(C(=O)Nc3cc(CN(C)C)cc(N(CC)CCCl)c3)cc2)c1 | -76% (inactive) |  | 
Cc1c(C)c2ccc(O)c(CN3CCN(C)CC3)c2oc1=O | -52.8% (inactive) |  | 
Cc1c(-c2ccccc2)c(=O)oc2cc(O)ccc12 | -87.3% (inactive) |  | 
COc1ccc(CN(C)C[C@@H]2OCCCC[C@H](C)Oc3ccc(NS(=O)(=O)c4cccs4)cc3C(=O)N([C@H](C)CO)C[C@@H]2C)cc1 |  | 7.89 | 
O=S(=O)(O)c1ccc(N2N=C(c3ccccc3)CC2c2ccccc2)cc1 (stereo not given) |  | 4.31 | 
Cc1ccccc1-c1ccc2c(c1)O[C@@H](CN(C)Cc1ccc(C(=O)O)cc1)[C@@H](C)CN([C@H](C)CO)S2(=O)=O |  | 4.29 | 
Cc1c(O)ccc2cc(S(=O)(=O)c3ccccc3)c(=O)oc12 | -94% (inactive) |  | 
CCc1cc(=O)oc2c(CNCc3c(F)cccc3Cl)c(O)ccc12 | -60.7% (inactive) |  | 
CC1CCN(Cc2cc(=O)oc3cc(O)c(Cl)cc23)CC1 |  |  | activity increase (activation) (at 5.6 µM (top of the series)): -36.5% (inactive)
C[C@@H]1CCCCO[C@@H](CN(C)S(C)(=O)=O)[C@@H](C)CN([C@@H](C)CO)C(=O)c2cc(NS(=O)(=O)c3ccc(Cl)cc3)ccc2O1 |  | 0.266 | 
COc1ccc(NC(=O)Nc2ccc3c(c2)C(=O)N([C@@H](C)CO)C[C@@H](C)[C@@H](CN(C)Cc2ccc(C(=O)O)cc2)OCCCC[C@@H](C)O3)cc1 |  | < 0.08 | 
COc1cc2ccc(=O)oc2cc1O | -97.7% (inactive) |  | 
CNC[C@H]1Oc2c(NC(=O)Nc3ccc(C(F)(F)F)cc3)cccc2C(=O)N([C@@H](C)CO)C[C@@H]1C |  | 0.646 | 
COc1ccc(-c2cc3ccc(O)cc3oc2=O)cc1 | -75.7% (inactive) |  | 
C[C@@H]1CCCCO[C@@H](CN(C)Cc2ccc(C(=O)O)cc2)[C@@H](C)CN([C@H](C)CO)C(=O)c2cc(NC(=O)Nc3cccc4ccccc34)ccc2O1 |  | 0.408 | 

SMILES | activity increase (activation) (at 11 µM (top of the series)) | AC40 [µM] | also measured
CC(=O)Oc1cc2oc(=O)cc(C)c2cc1Cl |  | 1.02 | 
Cc1cc(=O)oc2c(CN3CCCCC3)c(O)ccc12 | -81.1% (inactive) |  | 
CCCCCCC[C@H](N)[C@H](O)C(=O)N(C)[C@@H](CCS(C)=O)C(=O)N[C@@H](Cc1ccc(O)cc1)C(=O)N[C@@H](Cc1ccc(O)cc1)C(=O)O (stereo not given in full) | -57.4% (inactive) |  | 
C[C@@H]1CCCCO[C@H](CN(C)Cc2ccccc2)[C@H](C)CN([C@H](C)CO)C(=O)c2cc(NS(=O)(=O)c3ccccc3)ccc2O1 |  | 0.358 | 
C[C@@H]1CN([C@@H](C)CO)C(=O)c2cccc(NC(=O)Nc3ccc(C(F)(F)F)cc3)c2O[C@@H]1CN(C)C | 30.6% (inactive) |  | 
O=c1cc(CN2CCN(Cc3ccccc3)CC2)c2ccc(O)cc2o1 |  | 1.68 | 
CCCNC(=O)N(C)C[C@@H]1Oc2ncc(-c3ccncc3)cc2C(=O)N([C@H](C)CO)C[C@@H]1C | -31.8% (inactive) |  | 
O=c1oc2c(CN3CCN(CCO)CC3)c(O)ccc2cc1-c1ccccn1 | -80.1% (inactive) |  | 
CCN(CC)c1ccc2c(C)c(Cl)c(=O)oc2c1 |  | 8.19 | 
CCCN(C)C[C@@H]1OCCCC[C@@H](C)Oc2ccc(NS(=O)(=O)c3ccc(C)cc3)cc2C(=O)N([C@H](C)CO)C[C@@H]1C |  | 1.42 | 
N#Cc1c(N)n(CCNC(=O)c2ccccc2)c2nc3ccccc3nc12 |  | 10 | 
O=c1oc2cc(O)ccc2cc1S(=O)(=O)c1ccccc1 | 349% (inactive) |  | 
COc1ccc(CN(C)C[C@H]2OCCCC[C@@H](C)Oc3ccc(NS(=O)(=O)c4cccs4)cc3C(=O)N([C@H](C)CO)C[C@H]2C)cc1 |  | 1.23 | 
CC1CN(Cc2cc(=O)oc3cc(O)c(Cl)cc23)CC(C)O1 (stereo not given) |  | 3.4 | 
O=c1ccc2cc(O[C@@H]3O[C@@H](CO)[C@H](O)[C@@H](O)[C@@H]3O)c(O)cc2o1 |  |  | activity increase (activation) (at 5.6 µM (top of the series)): -79.1% (inactive)
C[C@H](CO)N1C[C@H](C)[C@H](CN(C)CC2CCCCC2)Oc2c(NC(=O)Nc3ccc(C(F)(F)F)cc3)cccc2C1=O |  | 0.565 | 
C[C@@H]1CCCCO[C@@H](CN(C)Cc2ccc(C(=O)O)cc2)[C@H](C)CN([C@@H](C)CO)C(=O)c2cc(NS(=O)(=O)c3ccc(Cl)cc3)ccc2O1 |  | 3.66 | 
CN1c2ccc(-c3ccc(C#N)cc3)cc2[C@@H]2[C@@H](CCN2C(=O)CC2CC2)[C@@H]1CO | -8.63% (inactive) |  | 
COc1ccc(CN(C)C[C@@H]2OCCCC[C@@H](C)Oc3ccc(NS(=O)(=O)c4cccs4)cc3C(=O)N([C@@H](C)CO)C[C@H]2C)cc1 |  | 0.577 | 
CCN(CC)Cc1c(O)ccc2cc(-c3nc4ccccc4n3C)c(=O)oc12 | -105% (inactive) |  | 
C[C@@H]1CCCCO[C@@H](CN(C)C)[C@@H](C)CN([C@@H](C)CO)C(=O)c2cc(NS(=O)(=O)c3ccc(F)cc3)ccc2O1 |  | 0.454 | 
CCN(CC)Cc1c(O)c(Cl)cc2c(C)cc(=O)oc12 | -83.4% (inactive) |  | 
CN(C)Cc1c(O)ccc2cc(-c3nc4ccccc4n3C)c(=O)oc12 | -107% (inactive) |  | 
O=c1cc(CN2CCOCC2)c2cc(Cl)c(O)cc2o1 |  | 4.84 | 
Cc1ccccc1-c1ccc2c(c1)O[C@@H](CN(C)Cc1ccc(C(=O)O)cc1)[C@@H](C)CN([C@@H](C)CO)S2(=O)=O |  | 1.24 | 
CN1CCN(Cc2c(O)ccc3cc(-c4ccccn4)c(=O)oc23)CC1 |  |  | activity increase (activation) (at 5.6 µM (top of the series)): -103% (inactive)
CC(C)(C)c1cc(N2CCOCC2)n2ncc(-c3ccccc3)c2n1 | -42% (inactive) |  | 
